According to US20100152434A1, “Protein Kinase-binding Nucleosides and Associated Methods” (priority 2007, published 2010):
Like-named read-outs stand apart in the source and are kept apart here.

How the values were obtained:
[1] = system: NCI-H23
[2] = system: HOP-62; conditions: HOP-62
[3] = system: MCF7; experiment: cells; conditions: Homo sapiens
[4] = system: SK-MEL-5; experiment: cells; conditions: Homo sapiens
[5] = system: 788-0; experiment: cells; conditions: Homo sapiens, 786-0
[6] = system: RXF 393; conditions: RXF 393
[7] = system: NCI-H23; experiment: cells; conditions: Homo sapiens
[8] = system: SW-620; experiment: cells; conditions: Homo sapiens
[9] = system: SR
[10] = system: MCF7
[11] = system: SF-295
[12] = system: NCI-H226
[13] = system: SK-OV-3
[14] = system: SK-MEL-2; experiment: cells; conditions: Homo sapiens
[15] = system: T-47D; experiment: cells; conditions: Homo sapiens, T47D
[16] = system: TK-10; experiment: cells; conditions: Homo sapiens
[17] = system: OVCAR-4
[18] = system: NCI-H522
[19] = system: NCI-H226; experiment: cells; conditions: Homo sapiens
[20] = system: KM12; experiment: cells; conditions: Homo sapiens
[21] = system: DU-145
[22] = system: ACHN; experiment: cells; conditions: Homo sapiens
[23] = system: SF-539; experiment: cells; conditions: Homo sapiens
[24] = system: UO-31; experiment: cells; conditions: Homo sapiens
[25] = system: OVCAR-8; experiment: cells; conditions: Homo sapiens
[26] = system: ACHN
[27] = system: TK-10

## CNC(=O)NC[C@H]1O[C@@H](n2cnc3c(NC(=O)Nc4ccccc4)ncnc32)[C@H](O[Si](C)(C)C(C)(C)C)[C@@H]1CC(=O)N(C)OC [Compound 13, 2′-O-(tert-Butyldimethylsilyl)-3′,5′-dideoxy-3′-[(N-methoxy-N-methylcarboxamido)methyl]-5′-[(N-methylcarbamoyl)amino]-N^6-(N-phenylcarbamoyl)adenosine]
[1]
  TGI: >1.00E−4 Molar
[1]; Log10 Concentration −4.0
  Percent Growth: 43%
[1]; Log10 Concentration −5.0
  Percent Growth: 71%
[1]; Log10 Concentration −6.0
  Percent Growth: 99%
[1]; Log10 Concentration −7.0
  Percent Growth: 103%
[1]; Log10 Concentration −8.0
  Percent Growth: 106%
[2]
  TGI: >1.00E−4 Molar
[2]; Log10 Concentration −4.0
  Percent Growth: 28%
[2]; Log10 Concentration −5.0
  Percent Growth: 64%
[2]; Log10 Concentration −6.0
  Percent Growth: 86%
[2]; Log10 Concentration −7.0
  Percent Growth: 88%
[2]; Log10 Concentration −8.0
  Percent Growth: 92%
[3]; MCF7
  GI50: 5.59 µM
[3]; MCF7, read-out: LC50
  CC50: > 100 µM
[4]; SK-MEL-5
  GI50: 5.81 µM
[4]; SK-MEL-5, read-out: LC50
  CC50: > 100 µM
[5]
  GI50: 9.01 µM
[6]
  TGI: 3.80E−5 Molar
[6]; Log10 Concentration −4.0
  Percent Growth: −36%
[6]; Log10 Concentration −5.0
  Percent Growth: 49%
[6]; Log10 Concentration −6.0
  Percent Growth: 98%
[6]; Log10 Concentration −7.0
  Percent Growth: 100%
[6]; Log10 Concentration −8.0
  Percent Growth: 103%
[7]; NCI-H23
  GI50: 57.2 µM
[7]; NCI-H23, read-out: LC50
  CC50: > 100 µM
[8]; SW-620
  GI50: > 100 µM
[8]; SW-620, read-out: LC50
  CC50: > 100 µM
[9]
  TGI: 3.46E−6 Molar
[9]; Log10 Concentration −4.0
  Percent Growth: −56%
[9]; Log10 Concentration −5.0
  Percent Growth: −53%
[9]; Log10 Concentration −6.0
  Percent Growth: 62%
[9]; Log10 Concentration −7.0
  Percent Growth: 89%
[9]; Log10 Concentration −8.0
  Percent Growth: 85%
[10]
  TGI: >1.00E−4 Molar
[10]; Log10 Concentration −5.0
  Percent Growth: 34%
[10]; Log10 Concentration −6.0
  Percent Growth: 96%
[10]; Log10 Concentration −7.0
  Percent Growth: 95%
[10]; Log10 Concentration −8.0
  Percent Growth: 91%
[11]
  TGI: >1.00E−4 Molar
[11]; Log10 Concentration −4.0
  Percent Growth: 20%
[11]; Log10 Concentration −5.0
  Percent Growth: 48%
[11]; Log10 Concentration −6.0
  Percent Growth: 98%
[11]; Log10 Concentration −7.0
  Percent Growth: 93%
[11]; Log10 Concentration −8.0
  Percent Growth: 93%
[12]
  TGI: >1.00E−4 Molar
[12]; Log10 Concentration −4.0
  Percent Growth: 40%
[12]; Log10 Concentration −5.0
  Percent Growth: 66%
[12]; Log10 Concentration −6.0
  Percent Growth: 99%
[12]; Log10 Concentration −7.0
  Percent Growth: 111%
[12]; Log10 Concentration −8.0
  Percent Growth: 103%
[13]
  TGI: >1.00E−4 Molar
[13]; Log10 Concentration −4.0
  Percent Growth: 38%
[13]; Log10 Concentration −5.0
  Percent Growth: 82%
[13]; Log10 Concentration −6.0
  Percent Growth: 95%
[13]; Log10 Concentration −7.0
  Percent Growth: 97%
[13]; Log10 Concentration −8.0
  Percent Growth: 96%
[14]; SK-MEL-2
  GI50: 14.9 µM
[14]; SK-MEL-2, read-out: LC50
  CC50: > 100 µM
[15]
  GI50: 13.9 µM
[15]; read-out: LC50
  CC50: > 100 µM
[16]; TK-10
  GI50: 20.5 µM
[16]; TK-10, read-out: LC50
  CC50: > 100 µM
[17]
  TGI: >1.00E−4 Molar
[17]; Log10 Concentration −4.0
  Percent Growth: 46%
[17]; Log10 Concentration −5.0
  Percent Growth: 60%
[17]; Log10 Concentration −6.0
  Percent Growth: 96%
[17]; Log10 Concentration −7.0
  Percent Growth: 100%
[17]; Log10 Concentration −8.0
  Percent Growth: 100%
[18]
  TGI: >1.00E−4 Molar
[18]; Log10 Concentration −4.0
  Percent Growth: 31%
[18]; Log10 Concentration −5.0
  Percent Growth: 51%
[18]; Log10 Concentration −6.0
  Percent Growth: 84%
[18]; Log10 Concentration −7.0
  Percent Growth: 87%
[18]; Log10 Concentration −8.0
  Percent Growth: 90%
[19]; NCI-H226
  GI50: 41.9 µM
[19]; NCI-H226, read-out: LC50
  CC50: > 100 µM
[20]; KM12
  GI50: 23.9 µM
[20]; KM12, read-out: LC50
  CC50: > 100 µM
[21]
  TGI: >1.00E−4 Molar
[21]; Log10 Concentration −4.0
  Percent Growth: 16%
[21]; Log10 Concentration −5.0
  Percent Growth: 60%
[21]; Log10 Concentration −6.0
  Percent Growth: 104%
[21]; Log10 Concentration −7.0
  Percent Growth: 112%
[21]; Log10 Concentration −8.0
  Percent Growth: 107%
[22]
  GI50: 14.4 µM
[22]; read-out: LC50
  CC50: > 100 µM
[23]; SF-539
  GI50: 22.3 µM
[23]; SF-539, read-out: LC50
  CC50: > 100 µM
[24]; UO-31
  GI50: 7.79 µM
[24]; UO-31, read-out: LC50
  CC50: > 100 µM
[25]; OVCAR-8
  GI50: 9.02 µM
[25]; OVCAR-8, read-out: LC50
  CC50: > 100 µM
[26]
  TGI: >1.00E−4 Molar
[26]; Log10 Concentration −4.0
  Percent Growth: 23%
[26]; Log10 Concentration −5.0
  Percent Growth: 55%
[26]; Log10 Concentration −6.0
  Percent Growth: 95%
[26]; Log10 Concentration −7.0
  Percent Growth: 102%
[26]; Log10 Concentration −8.0
  Percent Growth: 107%
[27]
  TGI: >1.00E−4 Molar
[27]; Log10 Concentration −4.0
  Percent Growth: 17%
[27]; Log10 Concentration −5.0
  Percent Growth: 65%
[27]; Log10 Concentration −6.0
  Percent Growth: 104%
[27]; Log10 Concentration −7.0
  Percent Growth: 106%
[27]; Log10 Concentration −8.0
  Percent Growth: 99%
